pEC50, pIC50: −log10 of the molar value. Read-outs that look alike come from different tables or passages of the source.

This note sets out measurements from US8987195B2 (priority 2012, dated 2015).

Assay [1] deals with HCV genotype 1b replicon. The assay can be described thus: HCV replicon assay, genotype 1b replicon EC50. The format is cell-based, Hepatitis C virus. To be noted: Hepatitis C virus, read-out: EC50 [gt-1b]. Put shortly:
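Stable neomycin-selected genotype 1b replicon cells, some carrying luciferase:Neo^r fusion, plated without G418 with a compound dilution series and incubated 24-48 h. Read-out was RNA (^32P-probe protection or TaqMan, normalized to cyclophilin A) or luciferase activity. EC50 from four-parameter fit as percent of DMSO control.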
On the technique in general: A replicon is a self-replicating genome or part of one, used to study replication in cells.

In assay [2] the target is HCV NS3/4A protease genotype 1b (Hepatitis C virus genotype 1b, UniProt P26663). The assay can be described thus: HCV NS3/4A protease time-resolved fluorescence (TRF) assay, Ki against genotype 1b. The format is biochemical. To be noted: for IC50: IC50 [gt-1b] (nM), NS3/4A genotype 1b, enzyme 0.2 nM; for pIC50: IC50 [gt-1b], NS3/4A protease TRF assay, genotype 1b enzyme 0.2 nM. Put shortly: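 Time-resolved fluorescence readout of NS3/4A cleavage of 25 nM europium-labelled peptide over 2.5 h at room temperature, enzyme levels set for signal/background 10–30 (0.2, 0.4, 0.025 nM for 1b, A156T, 3a). Ki by IC50=Ki(1+[S]/KM).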

Where [3] appears, read: HCV replicon, genotype 1b, K+ salt.

One may read the pEC50 as the EC50 on a negative log10 scale, so that one unit is a factor of ten. For orientation: IC50 means the concentration at which inhibition is half-maximal. In the case of `COc1ccc2c3c(c(C4CC4)nc2c1)O[C@]1(CC3)C[C@H]2C(=O)N[C@]3(C(=O)NS(=O)(=O)C4(C)CC4)C[C@H]3/C=C\CCCCC[C@H](NC(=O)OC3(C)CC3)C(=O)N2C1` [Example 135, 1-methylcyclopropyl [(2R,6S,12Z,13aS,14aR,16aS)-5′-cyclopropyl-8′-methoxy-14a-{[(1-methylcyclopropyl)sulfonyl]carbamoyl}-5,16-dioxo-1,1′,2′,5,6,7,8,9,10,11,13a,14,14a,15,16,16a-hexadecahydrospiro[cyclopropa[e]pyrrolo[1,2-a][1,4]diazacyclopentadecine-2,3′-pyrano[2,3-c]quinolin]-6-yl]carbamate], in assay [1] (genotype 1b replicon, K+ salt), the pEC50 was 8.55. The IC50 in assay [2] (K+ salt) is 0.037 nM.
As usually defined, the pIC50 is the IC50 on a negative log10 scale, so that one unit is a factor of ten. In the case of `CC[C@H](C)OC(=O)N[C@H]1CCCCC/C=C\[C@@H]2C[C@@]2(C(=O)NS(=O)(=O)C2(C)CC2)NC(=O)[C@@H]2C[C@]3(CCc4c(c(C(F)F)nc5ccc(OC)cc45)O3)CN2C1=O` [Example 444, (2S)-butan-2-yl [(2R,6S,12Z,13aS,14aR,16aS)-5′-(difluoromethyl)-9′-methoxy-14a-{[(1-methylcyclopropyl)sulfonyl]carbamoyl}-5,16-dioxo-1,1′,2′,5,6,7,8,9,10,11,13a,14,14a,15,16,16a-hexadecahydrospiro[cyclopropa[e]pyrrolo[1,2-a][1,4]diazacyclopentadecine-2,3′-pyrano[2,3-c]quinolin]-6-yl]carbamate], in assay [1] (setting [3]), the negative logarithm of the EC50 (pEC50) is 8.88. The pIC50 in assay [2] (K+ salt) is 10.85.
Take `Cc1nc2ccccc2c2c1O[C@]1(CC2)C[C@H]2C(=O)N[C@]3(C(=O)NS(=O)(=O)C4(C)CC4)C[C@H]3/C=C\CCCCC[C@H](NC(=O)OC(C)(C(F)(F)F)C(F)(F)F)C(=O)N2C1` [Example 307, 1,1,1,3,3,3-hexafluoro-2-methylpropan-2-yl [(2R,6S,12Z,13aS,14aR,16aS)-5′-methyl-14a-{[(1-methylcyclopropyl)sulfonyl]carbamoyl}-5,16-dioxo-1,1′,2′,5,6,7,8,9,10,11,13a,14,14a,15,16,16a-hexadecahydrospiro[cyclopropa[e]pyrrolo[1,2-a][1,4]diazacyclopentadecine-2,3′-pyrano[2,3-c]quinolin]-6-yl]carbamate]: the pEC50 in assay [1] (genotype 1b replicon) was 5.97. For the same molecule, the IC50 in assay [2] was found to be 0.019 nM.
Consider `Cc1nc2cc(F)c(F)cc2c2c1O[C@]1(CC2)C[C@H]2C(=O)N[C@]3(C(=O)NS(=O)(=O)C4(C)CC4)C[C@H]3/C=C\CCCCC[C@H](NC(=O)OCC3CCC3)C(=O)N2C1` [Example 225, cyclobutylmethyl [(2R,6S,12Z,13aS,14aR,16aS)-8′,9′-difluoro-5′-methyl-14a-{[(1-methylcyclopropyl)sulfonyl]carbamoyl}-5,16-dioxo-1,1′,2′,5,6,7,8,9,10,11,13a,14,14a,15,16,16a-hexadecahydrospiro[cyclopropa[e]pyrrolo[1,2-a][1,4]diazacyclopentadecine-2,3′-pyrano[2,3-c]quinolin]-6-yl]carbamate], for which, in assay [1] (genotype 1b replicon), the pEC50 was 7.90. The concentration for half-maximal inhibition (IC50) in assay [2] worked out at 0.031 nM.
Regarding `Cc1ccc2nc(C(F)(F)F)c3c(c2c1)CC[C@]1(C[C@H]2C(=O)N[C@]4(C(=O)NS(=O)(=O)C5(C)CC5)C[C@H]4/C=C\CCCCC[C@H](NC(=O)OCCN4CCCC4)C(=O)N2C1)O3` [Example 416, 2-(pyrrolidin-1-yl)ethyl [(2R,6S,12Z,13aS,14aR,16aS)-9′-methyl-14a-{[(1-methylcyclopropyl)sulfonyl]carbamoyl}-5,16-dioxo-5′-(trifluoromethyl)-1,1′,2′,5,6,7,8,9,10,11,13a,14,14a,15,16,16a-hexadecahydrospiro[cyclopropa[e]pyrrolo[1,2-a][1,4]diazacyclopentadecine-2,3′-pyrano[2,3-c]quinolin]-6-yl]carbamate], in assay [1] (HCV replicon, genotype 1b), the pEC50 was 6.57. Besides, the pIC50 in assay [2] is 9.79.
As to `COc1ccc2c3c(c(C4CC4)nc2c1)O[C@]1(CC3)C[C@H]2C(=O)N[C@]3(C(=O)NS(=O)(=O)C4(C)CC4)C[C@H]3/C=C\CCCCC[C@H](NC(=O)O[C@@H]3C[C@H](C)CC[C@H]3C(C)C)C(=O)N2C1` [Example 276, (1R,2S,5R)-5-methyl-2-(propan-2-yl)cyclohexyl [(2R,6S,12Z,13aS,14aR,16aS)-5′-cyclopropyl-8′-methoxy-14a-{[(1-methylcyclopropyl)sulfonyl]carbamoyl}-5,16-dioxo-1,1′,2′,5,6,7,8,9,10,11,13a,14,14a,15,16,16a-hexadecahydrospiro[cyclopropa[e]pyrrolo[1,2-a][1,4]diazacyclopentadecine-2,3′-pyrano[2,3-c]quinolin]-6-yl]carbamate], the pEC50 in assay [1] (genotype 1b replicon, HCOOH salt) is 6.98. Besides, the IC50 in assay [2] (HCOOH salt) worked out at 3.97 nM.
Regarding `Cc1nc2cc(F)c(F)cc2c2c1O[C@]1(CC2)C[C@H]2C(=O)N[C@]3(C(=O)NS(=O)(=O)C4(C)CC4)C[C@H]3/C=C\CCCCC[C@H](NC(=O)OCC3CCCC3)C(=O)N2C1` [Example 232, cyclopentylmethyl [(2R,6S,12Z,13aS,14aR,16aS)-8′,9′-difluoro-5′-methyl-14a-{[(1-methylcyclopropyl)sulfonyl]carbamoyl}-5,16-dioxo-1,1′,2′,5,6,7,8,9,10,11,13a,14,14a,15,16,16a-hexadecahydrospiro[cyclopropa[e]pyrrolo[1,2-a][1,4]diazacyclopentadecine-2,3′-pyrano[2,3-c]quinolin]-6-yl]carbamate], in assay [1] (genotype 1b replicon), the pEC50 was 7.89. The molecule also returned an IC50 in assay [2] of 0.085 nM.
On to `COc1ccc2nc(C(F)(F)F)c3c(c2c1)CC[C@]1(C[C@H]2C(=O)N[C@]4(C(=O)NS(=O)(=O)C5(C)CC5)C[C@H]4/C=C\CCCCC[C@H](NC(=O)OCC(F)F)C(=O)N2C1)O3` [Example 499, 2,2-difluoroethyl [(2R,6S,12Z,13aS,14aR,16aS)-9′-methoxy-14a-{[(1-methylcyclopropyl)sulfonyl]carbamoyl}-5,16-dioxo-5′-(trifluoromethyl)-1,1′,2′,5,6,7,8,9,10,11,13a,14,14a,15,16,16a-hexadecahydrospiro[cyclopropa[e]pyrrolo[1,2-a][1,4]diazacyclopentadecine-2,3′-pyrano[2,3-c]quinolin]-6-yl]carbamate], for which the negative logarithm of the EC50 (pEC50) in assay [1] (setting [3]) was 9.36. In addition, the pIC50 in assay [2] (K+ salt) is 11.40.
For `Cc1nc2ccccc2c2c1O[C@]1(CC2)C[C@H]2C(=O)N[C@]3(C(=O)NS(=O)(=O)C4(C)CC4)C[C@H]3/C=C\CCCCC[C@H](N(CCC3CCCC3)CCC3CCCC3)C(=O)N2C1` [Example 162, (2R,6S,12Z,13aS,14aR,16aS)-6-[bis(2-cyclopentylethyl)amino]-5′-methyl-N-[(1-methylcyclopropyl)sulfonyl]-5,16-dioxo-1,1′,2′,6,7,8,9,10,11,13a,14,15,16,16a-tetradecahydrospiro[cyclopropa[e]pyrrolo[1,2-a][1,4]diazacyclopentadecine-2,3′-pyrano[2,3-c]quinoline]-14a(5H)-carboxamide], the pEC50 in assay [1] (genotype 1b replicon) is 7.14. The molecule further returned an IC50 in assay [2] of 6.38 nM.
Turning to `COc1ccc2nc(C)c3c(c2c1)CC[C@]1(C[C@H]2C(=O)N[C@]4(C(=O)NS(=O)(=O)C5(C)CC5)C[C@H]4/C=C\CCCCC[C@H](Nc4cccc(OC)n4)C(=O)N2C1)O3` [Example 431, (2R,6S,12Z,13aS,14aR,16aS)-9′-methoxy-6-[(6-methoxypyridin-2-yl)amino]-5′-methyl-N-[(1-methylcyclopropyl)sulfonyl]-5,16-dioxo-1,1′,2′,6,7,8,9,10,11,13a,14,15,16,16a-tetradecahydrospiro[cyclopropa[e]pyrrolo[1,2-a][1,4]diazacyclopentadecine-2,3′-pyrano[2,3-c]quinoline]-14a(5H)-carboxamide], the negative logarithm of the EC50 (pEC50) in assay [1] (HCV replicon, genotype 1b) was 8.04. Besides, the pIC50 in assay [2] was 9.68.
